What is called IC50 is the concentration needed to halve the response being measured. For orientation: CC50 means the concentration at which the toxic effect on the cells reaches its halfway point. A lower CC50 goes with harm at low concentration.

For one data set, the system named is HIV NL4.3 strain. Nature of the data set: HIV infectivity assay, reporter cell line HeLa-CD4-LTR-LacZ, β-Gal activity (Tat protein inhibition). The note with it: for IC50: Human immunodeficiency virus 1, read-out: Infectivity IC50, HeLa-CD4-LTR-LacZ. Format: cell-based, HIV-1 (NL4.3). Summed up: (§1)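 HeLa-CD4-LTR-LacZ reporter cells (β-Gal under HIV 5′ LTR) infected with HIV NL4.3; β-Gal activity read 72 h post infection, with parallel Cell-Titer-Glo viability. OM10.1 carry a single wild-type provirus; ACH-2 a single provirus with TAR C37T mutation, defective Tat-TAR feedback.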

A short description of data set [1]: Cytotoxicity assay, Cell-Titer-Glo, HeLa-CD4-LTR-LacZ. The note with it: human, hela-cd4-ltr-lacz cells, Infectivity CC50, HeLa-CD4-LTR-LacZ. The method, boiled down: as §1

Molecules are shown by their SMILES. Where two headings read alike, the source gives them in different places. Where only a bound is given, the exact number is not on record here.

In the case of `Cc1cc(C(=O)NCCCN2CCCC2=O)nn1-c1ccccc1` [GB-14], in the data set on HIV NL4.3 strain (analogs of TT-44881 (Table 1)), the concentration for half-maximal inhibition (IC50) is greater than 100 µM. The CC50 in data set [1] (analogs of TT-44881 (Table 1)) is greater than 100 µM.

On to `COc1ccc(C(F)(F)F)cc1-c1noc(Cn2cc(C(F)(F)F)cc(Cl)c2=O)n1` [compound 47111], for which, in the data set on HIV NL4.3 strain (analogs of TT-44863 (Table 2)), the IC50 was greater than 100 µM. For the same compound, the CC50 in data set [1] (analogs of TT-44863 (Table 2)) was greater than 100 µM.

On to `CCOC(=O)c1c(NCCCN2CCCC2=O)c2ccccc2[nH]c1=O` [compound 46823], for which the IC50 in the data set with HIV NL4.3 strain (analogs of TT-44881 (Table 1)) is greater than 100 µM. The CC50 in data set [1] (analogs of TT-44881 (Table 1)) is greater than 100 µM.

On to `CC(C(=O)NCCCn1cnc(CNC(=O)OCc2ccccc2)c1)(c1ccccc1)c1ccccc1` [3-64], for which, in the data set on HIV NL4.3 strain (analogs of TT-44856 (Table 3)), the IC50 was in the range of 10 to 30 µM. For the same compound, the CC50 in data set [1] (analogs of TT-44856 (Table 3)) fell in the range of 20 to 50 µM.

Regarding `CCOCCOCCOc1ccc(C(F)(F)F)cc1NC(=O)Cn1cc(C(F)(F)F)cc(Cl)c1=O` [compound 55], in the data set on HIV NL4.3 strain (analogs of TT-44863 (Table 2)), the IC50 was 1 to 20 µM. In data set [1] (analogs of TT-44863 (Table 2)), this compound showed a CC50 greater than 100 µM.

On to `O=C(NCCCn1ccnc1)C(c1ccccc1)c1ccccc1` [compound 46608], for which the concentration for half-maximal inhibition (IC50) with HIV NL4.3 strain (analogs of TT-44856 (Table 3)) lay in the range of 1 to 10 µM. Further, in data set [1] (analogs of TT-44856 (Table 3)), the half-maximal cytotoxic concentration (CC50) is greater than 100 µM.

Consider `COc1ccc(C(F)(F)F)cc1NC(=O)C(C)n1cc(C(F)(F)F)cc(-c2ccccc2)c1=O` (centres unmarked), for which, in the data set on HIV NL4.3 strain (analogs of TT-44863 (Table 2)), the IC50 is greater than 100 µM. In data set [1] (analogs of TT-44863 (Table 2)), this compound returned a CC50 greater than 100 µM.

Take `O=C(NCCCn1ccnc1)c1ccc(-n2cc(Br)cn2)cc1` [3-40]: in the data set with HIV NL4.3 strain (analogs of TT-44856 (Table 3)), the IC50 is greater than 100 µM. Further, the cytotoxic concentration (CC50) in data set [1] (analogs of TT-44856 (Table 3)) was greater than 100 µM.

As for `CC(C(=O)Nc1cc(OCc2ccccc2)ccn1)(c1ccccc1)c1ccccc1` [3-44], the IC50 in the data set with HIV NL4.3 strain (analogs of TT-44856 (Table 3)) lay in the range of 1 to 30 µM. In data set [1] (analogs of TT-44856 (Table 3)), this compound came in with a 50% cytotoxic concentration (CC50) greater than 100 µM.

On to `O=C(NCCCN1CCCC1=O)c1ccn(-c2ccccc2)n1` [compound 45732], for which, in the data set on HIV NL4.3 strain (analogs of TT-44881 (Table 1)), the IC50 was greater than 100 µM. In addition, the CC50 in data set [1] (analogs of TT-44881 (Table 1)) is greater than 100 µM.

Consider `CC(C)N(CCCN1CCCC1=O)C(=O)c1nn(-c2ccccc2)c2c1CCC2` [GB-08], for which the IC50 with HIV NL4.3 strain (analogs of TT-44881 (Table 1)) lay in the range of 30 to 50 µM. In data set [1] (analogs of TT-44881 (Table 1)), the CC50 is greater than 100 µM.

On to `CC(C(=O)NCCCN1CCNCC1)(c1ccccc1)c1ccccc1` [3-55], for which the IC50 in the data set with HIV NL4.3 strain (analogs of TT-44856 (Table 3)) is greater than 100 µM. Also, the half-maximal cytotoxic concentration (CC50) in data set [1] (analogs of TT-44856 (Table 3)) is greater than 100 µM.

On to `Cc1cc(C(=O)N(C)CCCN2CCCC2=O)nn1-c1ccccc1` [GB-15], for which the IC50 in the data set on HIV NL4.3 strain (analogs of TT-44881 (Table 1)) is greater than 100 µM. This compound also registered a 50% cytotoxic concentration (CC50) in data set [1] (analogs of TT-44881 (Table 1)) greater than 100 µM.

Take `CCOc1ccccc1NC(=O)Cn1c(C)cc(COC)c(C#N)c1=O` [compound 46602]: in the data set with HIV NL4.3 strain (analogs of TT-44863 (Table 2)), the IC50 is greater than 100 µM. The same compound came in with a 50% cytotoxic concentration (CC50) in data set [1] (analogs of TT-44863 (Table 2)) greater than 100 µM.

`CCOC(=O)c1sc(NC(=O)Cn2cc(C(F)(F)F)cc(Cl)c2=O)nc1C(F)(F)F` [compound 47063]: in the data set with HIV NL4.3 strain (analogs of TT-44863 (Table 2)), the IC50 stood at 23.7 µM. Further, the half-maximal cytotoxic concentration (CC50) in data set [1] (analogs of TT-44863 (Table 2)) lay in the range of 25 to 50 µM.

As to `CC(C)(C)c1cn(-c2ccccc2)nc1C(=O)NCCCN1CCCC1=O` [compound 47091], the 50% inhibitory concentration (IC50) in the data set on HIV NL4.3 strain (analogs of TT-44881 (Table 1)) is greater than 100 µM. Besides, the half-maximal cytotoxic concentration (CC50) in data set [1] (analogs of TT-44881 (Table 1)) is 50 to 100 µM.

Turning to `O=C(O)c1ccc(C2(NC(=O)c3cn(-c4ccc(F)cc4)c4ccccc34)CC2)cc1` [compound 42097], the 50% inhibitory concentration (IC50) with HIV NL4.3 strain (analogs of TT-44881 (Table 1)) was greater than 100 µM. Further, the CC50 in data set [1] (analogs of TT-44881 (Table 1)) is greater than 100 µM.

For the compound `COc1ccc(Cl)cc1NC(=O)Cn1cc(C(F)(F)F)cc(Cl)c1=O` [TT-46603], the “decrease of potency vs TT-44863” value with HIV NL4.3 strain (HeLa-CD4 cell NL4.3 infection assays) is on record as ~ 5 fold. In addition, the IC50 in the data set on HIV NL4.3 strain (analogs of TT-44863 (Table 2)) lay within 20 to 30 µM. The cytotoxic concentration (CC50) in data set [1] (analogs of TT-44863 (Table 2)) lay within 50 to 100 µM.

For the compound `N#Cc1ccc(CNC(=O)c2cn(-c3ccccc3)c3ccccc23)cc1` [compound 41969], the IC50 with HIV NL4.3 strain (analogs of TT-44881 (Table 1)) worked out at 12.4 µM. In data set [1] (analogs of TT-44881 (Table 1)), this compound showed a half-maximal cytotoxic concentration (CC50) greater than 100 µM.

On to `COc1ccc(C(F)(F)F)cc1NC(=O)C(CCO)n1cc(C(F)(F)F)cc(Cl)c1=O` (centres unmarked) [compound 60], for which the 50% inhibitory concentration (IC50) with HIV NL4.3 strain (analogs of TT-44863 (Table 2)) lay in the range of 10 to 50 µM. In data set [1] (analogs of TT-44863 (Table 2)), this compound returned a CC50 of 10 to 30 µM.

For `CCc1cc(C(=O)NCCCN2CCCC2=O)nn1-c1ccccc1` [GB-13], the IC50 in the data set on HIV NL4.3 strain (analogs of TT-44881 (Table 1)) fell in the range of 10 to 20 µM. The compound further yielded a CC50 in data set [1] (analogs of TT-44881 (Table 1)) greater than 100 µM.

For the compound `CCn1nc(C(=O)NCCCN2CCCC2=O)c2c1CCC2` [compound 46932], in the data set with HIV NL4.3 strain (analogs of TT-44881 (Table 1)), the IC50 was greater than 100 µM. The CC50 in data set [1] (analogs of TT-44881 (Table 1)) is greater than 100 µM.

`CCN(CCCN1CCCC1=O)C(=O)c1nn(-c2ccccc2)c2c1CCC2` [GB-05]: the IC50 with HIV NL4.3 strain (analogs of TT-44881 (Table 1)) is greater than 100 µM. The same compound displayed a half-maximal cytotoxic concentration (CC50) in data set [1] (analogs of TT-44881 (Table 1)) greater than 100 µM.

With `O=C(NCCCN1CCCC1=O)c1nn(-c2ccccc2)c2ccccc12` [compound 46715], in the data set with HIV NL4.3 strain (analogs of TT-44881 (Table 1)), the IC50 lay within 50 to 100 µM. In data set [1] (analogs of TT-44881 (Table 1)), the CC50 was greater than 100 µM.

For the compound `O=C(NCCCN1CCCC1=O)c1nn(-c2ccccc2)cc1F` [compound 47010], the IC50 in the data set on HIV NL4.3 strain (analogs of TT-44881 (Table 1)) is greater than 100 µM. For the same compound, in data set [1] (analogs of TT-44881 (Table 1)), the CC50 is greater than 100 µM.

With `O=C(NCCCN1CCCC1=O)c1n[nH]c2c1CCC2` [compound 46727], in the data set on HIV NL4.3 strain (analogs of TT-44881 (Table 1)), the IC50 is greater than 100 µM. Also, the CC50 in data set [1] (analogs of TT-44881 (Table 1)) is greater than 100 µM.

Take `O=C(NCCCn1ccnc1)C1c2ccccc2Oc2ccccc21` [3-61]: the IC50 in the data set on HIV NL4.3 strain (analogs of TT-44856 (Table 3)) was greater than 100 µM. In addition, in data set [1] (analogs of TT-44856 (Table 3)), the CC50 was greater than 100 µM.

In the case of `O=C(NCCCn1ccnc1)c1cc(Cl)nc2ccccc12` [3-39], the IC50 in the data set on HIV NL4.3 strain (analogs of TT-44856 (Table 3)) was greater than 100 µM. The compound also showed a half-maximal cytotoxic concentration (CC50) in data set [1] (analogs of TT-44856 (Table 3)) greater than 100 µM.

As to `Cc1nccn1CCCNC(=O)C(c1ccccc1)(c1ccccc1)c1ccccc1` [3-67], the IC50 with HIV NL4.3 strain (analogs of TT-44856 (Table 3)) was 1 to 20 µM. The compound also returned a 50% cytotoxic concentration (CC50) in data set [1] (analogs of TT-44856 (Table 3)) of 50 to 100 µM.

Values taken from patent US20260355184A1, “SMALL MOLECULE DEGRADERS OF HIV-1 TAT PROTEIN” (priority 2022, published 2026).
